PMC8901179 (Journal of medicinal chemistry, 2019)

Tests used:
[1] = system: Bmal1-dLuc U2OS cells; assay: Cell-based circadian assay; conditions: for fold more potent than longdaysin (period lengthening): relative to longdaysin
[2] = system: mouse behavioral rhythms; conditions: cited from earlier work
[3] = system: mouse behavioral rhythms; assay: Circadian behavior measurement, infusion into the lateral ventricle; format: in vivo, mice; conditions: 1 mM infusion, constant darkness
[4] = system: Bmal1-dLuc U2OS cells; conditions: cited from earlier work
[5] = system: 374 kinases; assay: Profiling toward 374 kinases; format: biochemical; conditions: 5 μM compound

Compound: CC(C1CC1)n1cnc2c(OCc3cccc(C(F)(F)F)c3)nc(NCCN(C)C)nc21 (stereo not shown) [7d, N1-(9-(1-Cyclopropylethyl)-6-((3-(trifluoromethyl)benzyl)oxy)-9H-purin-2-yl)-N2,N2-dimethylethane-1,2-diamine]
- period lengthening activity (in words) [1]: dramatic decrease in the period lengthening activity

Compound: Nc1nccc(-c2c(-c3ccc(F)cc3)ncn2C2CCCCC2)n1 [PF-670462]
- period change in vivo (in words) [2]: only small period change in vivo

Compound: CC(C)n1cnc2c(NCc3cccc(C(F)(F)F)c3)nc(NCCN)nc21 [6k, N2-(2-Aminoethyl)-9-isopropyl-N6-(3-(trifluoromethyl)benzyl)-9H-purine-2,6-diamine]
- period lengthening activity (in words) [1]: much less activity compared to 6a

Compound: CC(C)n1cnc2c(NCc3cccc(C(F)(F)F)c3)ncnc21 [longdaysin]
- fold more potent than benipurine (1 h period lengthening) ([1]; relative to benipurine): 3 fold
- period lengthening of circadian behavior [3]: about 0.05 h
- compound concentration for 1 h period lengthening [4]: 0.3 µM

Compound: CC(C)n1cnc2c(NCc3cccc(C(F)(F)F)c3)nc(NCCN(C)C)nc21 [6a, N2-(2-(Dimethylamino)ethyl)-9-isopropyl-N6-(3-(trifluoromethyl)benzyl)-9H-purine-2,6-diamine]
- fold more potent than longdaysin (period lengthening) [1]: ~ 3 fold

Compound: CC(C)n1cnc2c(NCc3cccc(C(F)(F)F)c3)nc(NCCN3CCOCC3)nc21 [6f, 9-Isopropyl-N2-(2-morpholinoethyl)-N6-(3-(trifluoromethyl)-benzyl)-9H-purine-2,6-diamine]
- period lengthening activity (in words) [1]: decreased activity

Compound: CC(C1CC1)n1cnc2c(NCc3cccc(C(F)(F)F)c3)nc(NCCN(C)C)nc21 (stereo not shown) [7b, 9-(1-Cyclopropylethyl)-N2-(2-(dimethylamino)ethyl)-N6-(3-(trifluoromethyl)benzyl)-9H-purine-2,6-diamine]
- fold more potent than longdaysin (period lengthening) [1]: ~ 10 fold
- number of kinases among 374 kinases inhibited by more than 50% [5]: 9

Compound: CC(C1CC1)n1cnc2c(NCc3cccc(C(F)(F)F)c3)ncnc21 (stereo not shown) [7a]
- fold more potent than longdaysin (period lengthening) [1]: ~ 3 fold

Compound: CC(C1CC1)n1cnc2c(N(C)Cc3cccc(C(F)(F)F)c3)nc(NCCN(C)C)nc21 (stereo not shown) [7c, 9-(1-Cyclopropylethyl)-N2-(2-(dimethylamino)ethyl)-N6-methyl-N6-(3-(trifluoromethyl)benzyl)-9H-purine-2,6-diamine]
- period lengthening activity (in words) [1]: dramatic decrease in the period lengthening activity

Compound: CC(C)n1cnc2c(NCc3cccc(C(F)(F)F)c3)nc(N3CCC(O)CC3)nc21 [6d, 1-(9-Isopropyl-6-((3-(trifluoromethyl)benzyl)amino)-9H-purin-2-yl)piperidin-4-ol]
- period lengthening activity (in words) [1]: decreased activity
